Data on two compounds can be found in patent US4448730A, “Hydroxybenzohydroxamic acids, benzamides and esters and related compounds as ribonucleotide reductase inhibitors” (priority 1982, dated 1984).

What is called ILS is the gain in survival time of treated over control animals, in per cent. For orientation: % inhibition means how much of the control response was suppressed. The inhibition is the relative decrease from the control value, in per cent. A high value points to strong suppression.

Values joined by “and” are separate entries in the source; they are usually repeats but may differ in a detail not shown here. Identical values can stand only once. Like-named read-outs stand apart in the source and are kept apart here.

Test [1] relates to L1210 leukemia. The following applies: National Cancer Institute; cited from earlier work.
The conditions of test [2]: Biochemical Pharmacology 1971; cited from earlier work.
The next test addresses T1, ribonucleotide reductase (Rattus norvegicus, UniProt Q4KLN6).
T1 construct: partially purified from Novikoff hepatoma; from tissue; host or cells: Novikoff hepatoma (rat tumour), partially purified enzyme
T1 sequence (Q4KLN6 1-390): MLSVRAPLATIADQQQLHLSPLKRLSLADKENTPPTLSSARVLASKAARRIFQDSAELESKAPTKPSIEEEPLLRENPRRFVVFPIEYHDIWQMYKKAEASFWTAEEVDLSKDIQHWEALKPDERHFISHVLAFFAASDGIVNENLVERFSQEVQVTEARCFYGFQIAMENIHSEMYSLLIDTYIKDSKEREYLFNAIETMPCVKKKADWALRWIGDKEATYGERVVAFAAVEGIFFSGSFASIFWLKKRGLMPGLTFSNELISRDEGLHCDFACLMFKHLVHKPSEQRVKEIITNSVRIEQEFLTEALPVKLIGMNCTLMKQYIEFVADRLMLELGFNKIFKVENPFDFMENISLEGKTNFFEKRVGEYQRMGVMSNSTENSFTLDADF
The test is described as follows: Inhibition of ribonucleotide reductase (conversion of CDP to dCDP), enzyme partially purified from Novikoff hepatoma. The test is classed as biochemical. The source says: (§1) Table 2 gives ribonucleotide reductase data for certain compounds of formula I. In the table, column 1 gives the substitution pattern in the benzene ring, column 2, the R^1 group, column 3, the ID50 (inhibitory dose in micromolar concentration which inhibits ribonucleotide reductase by 50%), column 4, the average percent (± standard error) increase in the life span (ILS) of 8 treated mice inoculated with L1210 leukemia compared with 8 control mice also inoculated with L1210. The daily dose level of the drug which was administered for 8 days is indicated in column 5. Table 3 gives the relative potency of the compounds represented by formula I above as inhibitors of ribonucleotide reductase compared to hydroxyurea whose potency was given an arbitrary value of 1.0. In table 3, column 1 gives the name of the compound and column 2 the relative inhibitory potency of each of the compounds of column 1.
In the above determination of ID50 's in Table 3, ribonucleotide reductase is partially purified from Novikoff hepatoma by a procedure similar to that set forth by Elford et al. J. Biol. Chem. 245, 5228 (1970). The activity of the enzyme was measured by a slightly modified assay procedure originally developed by Reichard et al. id, 236, 1150 […]. This procedure measures the conversion of CDP to dCDP. The assay mixture (0.34 ml.) contains 3 μCi of [^3 H] CDP (specific activity […]), 3.3 μmole ATP, 5.9 μmoles magnesium chloride, 8.8 μmoles Hepes buffer at pH=7.5, 15 μmoles dithiothreitol and enzyme protein between 0.4 and 1.3 mg. Incubation was provided for forty minutes at 30° C. Ion exchange chromatography employing Dowex 50 (H^+) resin is used to separate the product from the substrate. The inhibitors were dissolved in water and a mixture of water and up to 1 % ethanol or 2% dimethylsulfoxide, neither one of which inhibited the enzyme at these concentrations. Each inhibitor was tested at a minimum of three concentrations and the active compounds reassayed at least one additional time. ID50 's in μmoles were estimated from graphs summarizing results for each compound.

The test system of test [3] is L1210 leukemia. The test is described as follows: L1210 leukemia in mice, increase in life span (Table 2). The test is classed as in vivo. The settings on record: Mus musculus, L1210, 192 h; 400 mg/kg daily for 8 days; read-out: ILS, average percent (± standard error) increase in life span.
From the text: As stated above, the compounds represented by formula I above have the ability to inhibit ribonucleotide reductase, an enzyme involved in the reductive conversion of ribonucleotides to deoxyribonucleotides. This enzymatic reaction is a rate controlling step in the biosynthetic pathway leading to DNA and cell replication. In general, the ribonucleotide reductase level is closely correlated with cellular replication.
as §1

Test [4] relates to L-1210 Leukemia. The test is classed as in vivo, mice. The settings on record: once or twice daily for 9-10 days.
Description: (§3) All compounds were administered once or twice daily for 9-10 days starting 24 hours after inoculation with the tumor.
Another test has as its system Lewis Lung. The test is described as follows: Activity vs. Lewis Lung (Table 5). It is filed as in vivo, mice. The following applies: 100 mg/kg; once or twice daily for 9-10 days.
In a further test the test system is CA-755 adenocarcinoma. The test is described as follows: Activity vs. CA-755 adenocarcinoma (Table 7). It is filed as in vivo, mice. The settings on record: once or twice daily for 9-10 days.
Another test has as its system P388 Leukemia. The test is described as follows: Activity vs. P388 Leukemia (Table 8). It is filed as in vivo, mice. The settings on record: once or twice daily for 9-10 days.
The subject of a further test is CX-1 colon xenograft. The test is described as follows: Activity against CX-1 colon xenograft. The test is classed as in vivo. How it is done:
In addition, the compound 3,4-dihydroxybenzenehydroxamic acid was active against CX-1 colon xenograft using the following protocol:
0% tumor inhibition at 800 mg/kg dose level every fourth day,
3,4,5-trihydroxybenzohydroxamic acid gave the following results against the same tumor using the same protocol.

In a further test the test system is P-388 leukemia. The test is described as follows: Prolongation of life of mice inoculated with P-388 leukemia, dosing every fifth day. It is filed as in vivo. The following applies: 50-400 mg/kg every fifth day.
For the next test, the system named is CD8F mammary tumor. Briefly: Inhibition of growth of CD8F mammary tumor. The test is classed as in vivo. The source says: (§2) The same two compounds were effective in inhibiting the growth of the following transplanted tumors--B16 melanoma, M-1 human breast xenograft, LX-1 human lung xenograft, CD8F mammary tumor and colon 38 tumor--as follows: […]
The next test deals with colon 38 tumor. Briefly: Inhibition of growth of colon tumor C8 (colon 38). The test is classed as in vivo, mice.
From the text: as §2

For a further test, the system named is B16 melanoma. The test is described as follows: B16 melanoma, increase in survival. It is filed as in vivo, mice.
From the text: as §2

In test [5] the test system is M-1 human breast xenograft. Briefly: Inhibition of growth of M-1 human breast xenograft. It is filed as in vivo, mice.
From the text: as §2
(In general: In xenograft studies the graft and the host belong to different species.)

Test [6] deals with L-1210 Leukemia. The test is classed as in vivo, mice. How it is done:
In a series of studies against L-1210 leukemia, in addition to those studies set forth in Table 2 and 4, 3,4-dihydroxybenzohydroxamic acid gave the following increases in survival times at the dose levels specified. Drug was administered daily for nine days.
Similar data for 3,4,5-trihydroxybenzohydroxamic acid are as follows: […]

For another test, the system named is L-5563 lymphoma. Briefly: Activity vs. L-5563 lymphoma (Table 6). The following applies: 100 mg/kg; once or twice daily for 9-10 days.

Description for CA-755 adenocarcinoma: as §3
Description for L-5563 lymphoma: as §3
Description for Lewis Lung: as §3
Description for P388 Leukemia: as §3

On to `O=C(NO)c1ccc(O)cc1` [4-hydroxybenzoylhydroxamic acid], for which the “antitumor activity in vivo against L1210 leukemia (in words)” value with L1210 leukemia [1] is reported as “significant antitumor activity in vivo”. Besides, in [2], the “antimitogenic activity (in words)” value is “most active compounds tested”.

On to `O=C(NO)c1cc(O)c(O)c(O)c1` [3,4,5-trihydroxybenzohydroxamic acid], for which, at ribonucleotide reductase (CDP to dCDP, 40 min at 30° C, pH 7.5, enzyme from Novikoff hepatoma, read-out: ID50 (inhibitory dose which inhibits ribonucleotide reductase by 50%)), the IC50 was determined as 10 µM. Further, the “Inhibitory Potency for ribonucleotide reductase” value on ribonucleotide reductase (relative to hydroxyurea, given an arbitrary value of 1.0) is reported as 50. Further, the ILS at 400 mg/kg with L1210 leukemia [3] was found to be 53 ± 19%. In addition, the “% increase in survival time” value was 60% in the test with L-1210 Leukemia [4] (75 mg/kg); 58% and 55% in the test on L-1210 Leukemia [4] (100 mg/kg, listed as gallohydroxamic acid); 54% in the test on L-1210 Leukemia [4] (120 mg/kg); 16% with L-1210 Leukemia [6] (dose 800, similar data (daily for nine days)). Also, in the test with Lewis Lung, the “% tumor inhibition” value is recorded as 40%. In addition, the “% inhibition” value in the test on CA-755 adenocarcinoma (100 mg/kg) is given as 28%; with CA-755 adenocarcinoma (150 mg/kg) it was 11%; with CA-755 adenocarcinoma (175 mg/kg), 29%; with L-5563 lymphoma, 41%. Besides, the “% Prolongation” value with P388 Leukemia (200 mg/kg) turned out to be 62%; in the test with P388 Leukemia (225 mg/kg) it was 79%. Moreover, the tumor inhibition in the test on CX-1 colon xenograft (200 mg/kg every fourth day) amounted to 17%; in the test with CX-1 colon xenograft (400 mg/kg every fourth day), 40%; with CX-1 colon xenograft (800 mg/kg every fourth day), 44%. Moreover, the prolongation of life in the test on P-388 leukemia is recorded as 23-53%. In addition, the inhibition in the test with CD8F mammary tumor (300 mg/kg) is on record as 0%; with CD8F mammary tumor (600 mg/kg), 22%; in the test on colon 38 tumor (50 mg/kg) it was 20%; with colon 38 tumor (100 mg/kg), 30%; in the test on colon 38 tumor (200 mg/kg), 32%; in the test on colon 38 tumor (400 mg/kg), 17%. In addition, the inhibition with colon 38 tumor (800 mg/kg) came to 60%; in [5] (200 mg/kg) it was 69%; in [5] (400 mg/kg), 21%; in [5] (800 mg/kg) it was 56%; in test [5] (1600 mg/kg) it was 41%. The increase in survival in the test with B16 melanoma (100 mg/kg) is 14%; in the test with B16 melanoma (200 mg/kg) it was 18%. The “% increase in survival” value in the test on L-1210 Leukemia [6] (50 mg/kg daily for nine days) was 27% and 29%; in the test with L-1210 Leukemia [6] (200 mg/kg daily for nine days) it was 54% and 56%; in the test with L-1210 Leukemia [6] (400 mg/kg daily for nine days) it was 0% and 4%.
